Target: T1, p21 protein (v-Ki-ras p21, serine at position 12) (Kirsten murine sarcoma virus, UniProt P01117)
T1 construct: made in house; host or cells: E. coli (plasmid pINIII-ras, gift of M. Inouye, printed 'Inouge')
Assay: Inhibition by nucleotides of anti-p21ser antibody binding to p21 protein under mild denaturation conditions
Details: 10 mM nucleotide
From the text: An alternative explanation is that the antibody binds at some distance from the GTP binding site and yet alters GTP binding by disturbing the tertiary structure of the protein. […] The invention herein is not limited to either explanation.

T1 sequence (P01117 whole entry): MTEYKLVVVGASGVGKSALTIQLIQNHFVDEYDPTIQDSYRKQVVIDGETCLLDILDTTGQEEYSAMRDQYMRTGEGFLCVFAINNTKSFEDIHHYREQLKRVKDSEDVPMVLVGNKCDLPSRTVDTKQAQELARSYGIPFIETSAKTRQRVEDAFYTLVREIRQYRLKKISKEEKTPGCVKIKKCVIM

Structure (SMILES) | inhibition of the binding of anti-p21ser antibodies to p21 protein
Nc1ncnc2c1ncn2[C@@H]1O[C@H](COP(=O)(O)OP(=O)(O)OP(=O)(O)O)[C@@H](O)[C@H]1O [ATP] | not
Nc1nc2c(ncn2[C@@H]2O[C@H](COP(=O)(O)OP(=O)(O)OP(=O)(O)O)[C@@H](O)[C@H]2O)c(=O)[nH]1 [GTP, guanosine triphosphate] | substantially inhibit

Reference: patent publication US4798787A, “Peptide antibodies and their use in detecting oncogene products” (Cetus Corporation, priority 1984, dated 1989)
